# Earlier results, collected in patent US12263173B2, “PLK1 inhibitor in combination with anti-angiogenics for treating metastatic cancer” (CARDIFF ONCOLOGY, INC., priority 2022, dated 2025).
# Like-named read-outs stand apart in the source and are kept apart here.
# Tests used:
# [1] = tested on: patients with advanced/metastatic solid tumors; details: reversible
# PLK1 = PLK1 (Homo sapiens, UniProt P53350)
# [2] = tested on: HT29 human colon adenocarcinoma xenografts; details: in combination with irinotecan
# [3] = tested on: disseminated model of AML
# [4] = tested on: patients with AML who were treatment naïve yet unsuitable for induction therapy; details: administered intravenously in combination with LDAC
# patients with AML = details: in combination with LDAC
# [5] = tested on: patients with and without prior bevacizumab treatment; details: second line
# [6] = bev naïve (without prior bevacizumab)
# Sequence of PLK1 (P53350 whole entry): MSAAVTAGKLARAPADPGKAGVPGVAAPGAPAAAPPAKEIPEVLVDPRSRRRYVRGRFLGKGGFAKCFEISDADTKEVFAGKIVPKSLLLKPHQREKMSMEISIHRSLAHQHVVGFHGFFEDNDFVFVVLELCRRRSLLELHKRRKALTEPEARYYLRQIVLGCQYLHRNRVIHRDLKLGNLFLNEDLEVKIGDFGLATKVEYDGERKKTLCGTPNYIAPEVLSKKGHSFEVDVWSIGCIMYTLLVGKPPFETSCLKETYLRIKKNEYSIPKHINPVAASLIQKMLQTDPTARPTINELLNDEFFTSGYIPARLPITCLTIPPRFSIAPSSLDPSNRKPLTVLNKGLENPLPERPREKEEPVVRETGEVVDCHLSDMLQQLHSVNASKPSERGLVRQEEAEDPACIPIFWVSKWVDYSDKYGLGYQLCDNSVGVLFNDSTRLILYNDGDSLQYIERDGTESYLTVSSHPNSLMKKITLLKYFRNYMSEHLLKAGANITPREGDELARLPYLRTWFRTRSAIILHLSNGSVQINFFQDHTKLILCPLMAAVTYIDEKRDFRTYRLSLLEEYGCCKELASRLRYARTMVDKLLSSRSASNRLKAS
molecule,measurement,setting,value
"CN1CCN(c2ccc(OC(F)(F)F)c(Nc3ncc4c(n3)-c3c(c(C(N)=O)nn3CCO)CC4)c2)CC1 [onvansertib, 1-(2-hydroxyethyl)-8-{[5-(4-methylpiperazin-1-yl)-2-(trifluoromethoxy)phenyl]amino}-4,5-dihydro-1H-pyrazolo[4,3-h]quinazoline-3-carboxamide]",recovery of hematologic toxicities,[1],≤ 3 weeks
same,specificity for PLK1,"PLK1; among a panel of 296 kinases, including other PLK members",high specificity
same,potency and specificity for the PLK1 isozyme versus volasertib,PLK1; compared with volasertib (BI6727),higher degree of potency and specificity
same,inhibition of cell proliferation,AML cell lines,nanomolar concentrations
same,xenograft tumor growth,xenograft models; well tolerated doses in mice after oral administration,inhibits xenograft tumor growth
same,tumor growth,xenograft models; xenograft models of AML,inhibited
same,tumor regression compared to each agent alone,[2],enhanced tumor regression
same,survival of animals,[3]; in combination therapy with cytarabine,prolonged survival
same,effect on cytarabine antitumor activity,[3]; in combination with cytarabine,significantly increased
CC[C@@H]1C(=O)N(C)c2cnc(Nc3ccc(C(=O)N[C@H]4CC[C@H](N5CCN(CC6CC6)CC5)CC4)cc3OC)nc2N1C(C)C [volasertib],OS compared with LDAC alone,[4],significant increase in OS
same,benefit of the combination,patients with AML,no benefit
"bev: anti-angiogenics (angiogenesis inhibitor), Avastin",mOS,[5]; [6],13.9 months
same,mPFS,[5]; [6],6.9 months
same,mOS,[5]; prior bev,12.5 months
same,mPFS,[5]; prior bev,6.7 months
